Reference: US20030228632A1, “Stable RXR expressing cell line” (Allergan Sales, Inc., priority 2000, published 2003)

Experiments:
Format in all cases: cell-based, Rat
HircRXRα cells [1] = test: Cell growth of HircRXRα cells, direct microscopic observation; settings: 1 nM
Method: (§1) The effect on cell growth was evaluated by plating either a HircB cells (as a control) or HircRXRα cells in 6 well plates with 0.5×10^5 cells per well in 10% FBS/DMEM/F12. The next day, the medium was replaced with a specified concentration of agonist, antagonist or both or with 0.1% DMSO in 10% FBS/DMEM/F12. Analyses were performed in triplicate.
[…] Alternatively, cell growth was measured using the MTT assay using absorbance at 590 nm. Mosmann, T., et al., J Immunol. Meth. (1983) 65:55-62.

HircB cells = test: Cell counts of parental HircB cells after agonist treatment (FIG. 5); settings: 1 nM, four days of treatment
Method: as §1

HircRXRα cells [2] = test: Cell counts of HircRXRα cells after agonist treatment (FIG. 5); settings: 1 nM, four days of treatment
Method: as §1

HircRXRα cells [3] = test: HircRXRα cell growth by MTT assay (FIGS. 6 and 7); settings: five days of treatment, FIG. 6
Method: as §1
After incubation with agonist for 2 days, the change in cell number and morphology in the various HircRXRα cell samples were observed under the microscope. Alternatively, cell growth was measured using the MTT assay using absorbance at 590 nm. Mosmann, T., et al., J Immunol. Meth. (1983) 65:55-62.
FIGS. 6 and 7 show effects of RXRα ligands on HircRXRα cell growth as determined when cell growth was assessed by the MTT assay.

[4] = tested on: phosphorylated MAP-kinase in HircRXRα cells; test: Insulin stimulated phosphorylation of MAP kinase in HircRXRα cells (Western blot, FIG. 9); settings: 100 nM insulin, up to 90 minutes
Method: (§2) They were then incubated for various periods in the presence of 100 nM insulin and then lysed. Solubilized cell proteins were subjected to SDS-PAGE and transferred to nitrocellulose and immunoblotted using antibodies specific to phosphorylated forms of MEK and MAP kinase.
(§3) Similar results are shown in FIG. 9 with respect to the phosphorylation of MAP-kinase in response to insulin.

[5] = tested on: phosphorylated MEK in HircB cells; test: Insulin stimulated phosphorylation of MEK in HircB cells (Western blot, FIG. 8); settings: 100 nM insulin, 0-30 minutes
Method: as §2
(§4) FIGS. 8 and 9 show the results. […] In the left panel, the parental HircB cell line was tested for phosphorylated MEK in the solubilized protein at 0 minutes (lane 1), 5 minutes (lane 2), 15 minutes (lane 3) and 30 minutes (lane 4) after treatment with 100 nM insulin.

[6] = tested on: phosphorylated MEK in HircRXRα cells; test: Insulin stimulated phosphorylation of MEK in HircRXRα cells (Western blot, FIG. 8); settings: 100 nM insulin, 0-30 minutes
Method: as §2, §4

[7] = tested on: phosphorylated MAP-kinase in HircB cells; test: Insulin stimulated phosphorylation of MAP kinase in HircB cells (Western blot, FIG. 9); settings: 100 nM insulin, up to 90 minutes
Method: as §2, §3

| Molecule | effect on cell growth (microscopic observation) (HircRXRα cells [1]; after four days) | effect on cell growth (microscopic observation) (HircRXRα cells [1]; after two days) | effect on growth (cell counts) (HircB cells) | growth (cell counts) relative to no agonist (HircRXRα cells [2]) | effect on cell growth (MTT assay) (HircRXRα cells [3]; 1 nM) | effect on cell growth (MTT assay) (HircRXRα cells [3]; 100 nM) | phosphorylated MAP-kinase after insulin treatment [4] | phosphorylated MEK after insulin treatment [5] | phosphorylated MEK after insulin treatment [6] | phosphorylated MAP-kinase after insulin treatment [7] |
| --- | --- | --- | --- | --- | --- | --- | --- | --- | --- | --- |
| CC(/C=C/[C@@H]1C[C@]1(C)c1ccc2c(c1)C(C)(C)CCC2(C)C)=C\C(=O)O [AGN 4204] | the reduction in growth was maintained | greatly reduced growth | no demonstrable effect | approximately one-third | significant reduction in growth | further reduction in growth |  |  |  |  |
| insulin: insulin used at 100 nM to stimulate MEK and MAP kinase phosphorylation |  |  |  |  |  |  | substantially maintained over the 90-minute period | diminished considerably by 30 minutes | less reduced after 30 minutes than in the HircB cell line | virtually gone after 90 minutes |
